Source: patent US11292788B2, “IL-17 and IFN-gamma inhibition for the treatment of autoimmune diseases and chronic inflammation” (Immunic AG, priority 2017, dated 2022)
Read-outs that look alike come from different tables or passages of the source.

What was measured:
INF-γ = assay: Cytokine assay: INF-γ production by human PBMC stimulated with PHA; assay type: cell-based; conditions: Homo sapiens, PBMC, IC50 class, read-out: IFN-gamma Inhib.
Summary of the method: (§1)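 Healthy-donor PBMC, isolated on Histopaque-1077, were seeded at 1×10^5 cells/well in RPMI1640 with 10% dialyzed heat-inactivated FCS, activated with 2 μg/ml PHA and incubated with compound for 48 hours. Supernatant cytokine was measured by Luminex BioPlex or ELISA. IC50 came from semilogarithmic titration; screening used 10, 1, 0.1 and 0.01 μM.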

[1] = Microsomal stability: incubation with human liver microsomes, residual parent compound by HPLC-MS/MS; assay type: in vitro ADME; conditions: up to 60 min, read-out: t1/2 hLM
Method: Metabolic stability of compounds of the present invention was determined by incubation with human liver microsomes and subsequent determination of residual amount of the respective compound (“parent compound”) by HPLC-MS/MS.
In order to achieve this, in a final reaction volume of 1000 μl, each compound was incubated at a final concentration of 1 μM with 0.5 mg/ml human liver microsomes (HLM Pool 50 Donors, 20 mg/ml, BD Gentest, #452156, LotNr 88114) in 0.1 M Potassium phosphate buffer at pH 7.4, with a cofactor in form of a NADPH regenerating system (Promega, #V9510) according to the manufacturers' specifications. The final DMSO concentration in each sample was 0.4%. The incubation was performed at 37° C. under shaking conditions (Thermomixer, 1400 rpm) for different time intervals up to 60 min. To stop the reaction, for each time point 200 μl of the reaction were taken out and 200 μl ice-cold acetonitrile was added. Then, the samples were centrifuged (4° C., 14000*g for 15 min). The supernatant was analyzed for residual parent compound concentration and scanned for metabolites using HPLC-MS/MS. By using optimized MS methods for each compound, the peak area under curve for the compound specific signal is determined. The change of the peak areas over the assay time of 60 min resemble the remaining parent compound in % of T0. By these points, a balancing line was set. The half-time, as well as the clearance, can then be calculated on the basis of the slope.

IL-17F = assay: Cytokine assay: IL-17F production by human PBMC stimulated with PHA; assay type: cell-based; conditions: Homo sapiens, PBMC, IC50 class, read-out: IL-17F Inhib.
Summary of the method: as §1

IL-17A = assay: Cytokine assay: IL-17A production by human PBMC stimulated with PHA; assay type: cell-based; conditions: Homo sapiens, PBMC, IC50 class, read-out: IL-17A Inhib.
Summary of the method: as §1

[2] = human liver microsomes 0.5 mg/ml, compound 1 μM, pH 7.4, 37° C.
[3] = pH 7.4, human liver microsomes, 1 μM compound, 0.5 mg/ml HLM, 37° C.

## COCc1c(-c2c(F)cccc2Cl)noc1-c1cnn([C@H]2C[C@@](C)(O)C2)c1C(F)(F)F [Example 69, 3-(4-(3-(2-chloro-6-fluorophenyl)-4-(methoxymethyl)isoxazol-5-yl)-5-(trifluoromethyl)-1H-pyrazol-1-yl)-1-methylcyclobutan-1-ol]
INF-γ
  IC50: < 50 nM
[1]; [2]
  half-life at 1 μM: > 100 min
IL-17F
  IC50: 50 to 500 nM
IL-17A
  IC50: 50 to 500 nM

## C[C@@H](O)Cn1ncc(-c2onc(-c3c(F)cccc3Cl)c2COC2CC2)c1C(F)(F)F [Example 85, (2R)-1-(4-(3-(2-chloro-6-fluorophenyl)-4-(cyclopropoxymethyl)isoxazol-5-yl)-5-(trifluoromethyl)-1H-pyrazol-1-yl)propan-2-ol]
INF-γ
  IC50: < 50 nM
[1]; [2]
  half-life at 1 μM: 10 to 40 min
IL-17F
  IC50: < 50 nM
IL-17A
  IC50: < 50 nM

## C[C@]1(O)C[C@@H](n2ncc(-c3onc(-c4c(F)cccc4Cl)c3COC3CC3)c2C(F)(F)F)C1 [Example 86, 3-(4-(3-(2-chloro-6-fluorophenyl)-4-(cyclopropoxymethyl)isoxazol-5-yl)-5-(trifluoromethyl)-1H-pyrazol-1-yl)-1-methylcyclobutan-1-ol]
INF-γ
  IC50: < 50 nM
[1]; [2]
  half-life at 1 μM: > 100 min
IL-17F
  IC50: < 50 nM
IL-17A
  IC50: < 50 nM

## C[C@]1(O)C[C@@H](n2ncc(-c3onc(-c4cccc(OCCN5CCOCC5)c4Cl)c3COC3CC3)c2C(F)(F)F)C1 [Example 92, 3-(4-(3-(2-chloro-3-(2-morpholinoethoxy)phenyl)-4-(cyclopropoxymethyl)isoxazol-5-yl)-5-(trifluoromethyl)-1H-pyrazol-1-yl)-1-methylcyclobutan-1-ol]
INF-γ
  IC50: < 50 nM
[1]; [3]
  half-life at 1 μM: 2 to 9.99 min
IL-17F
  IC50: < 50 nM
IL-17A
  IC50: < 50 nM

## C[C@@H](O)Cn1ncc(-c2onc(-c3c(F)cccc3Cl)c2-c2ncccn2)c1C(F)(F)F [Example 97, (R)-1-(4-(3-(2-chloro-6-fluorophenyl)-4-(pyrimidin-2-yl)isoxazol-5-yl)-5-(trifluoromethyl)-1H-pyrazol-1-yl)propan-2-ol]
INF-γ
  IC50: < 50 nM
[1]; [3]
  half-life at 1 μM: 40 to 100 min
IL-17F
  IC50: < 50 nM
IL-17A
  IC50: < 50 nM

## C[C@]1(O)C[C@@H](n2ncc(-c3onc(-c4c(F)cccc4Cl)c3-c3ncccn3)c2C(F)(F)F)C1 [Example 98, 3-(4-(3-(2-chloro-6-fluorophenyl)-4-(pyrimidin-2-yl)isoxazol-5-yl)-5-(trifluoromethyl)-1H-pyrazol-1-yl)-1-methylcyclobutanol]
INF-γ
  IC50: < 50 nM
[1]; [3]
  half-life at 1 μM: > 100 min
IL-17F
  IC50: < 50 nM
IL-17A
  IC50: < 50 nM

## C[C@]1(O)C[C@@H](n2ncc(-c3onc(-c4c(F)cccc4Cl)c3-c3cnccn3)c2C(F)(F)F)C1 [Example 100, 3-{4-[3-(2-chloro-6-fluorophenyl)-4-(pyrazin-2-yl)-1,2-oxazol-5-yl]-5-(trifluoromethyl)-1H-pyrazol-1-yl}-1-methylcyclobutan-1-ol]
INF-γ
  IC50: < 50 nM
[1]; [3]
  half-life at 1 μM: > 100 min
IL-17F
  IC50: < 50 nM
IL-17A
  IC50: 50 to 500 nM

## COc1cccc(-c2noc(-c3cnn([C@H]4C[C@@](C)(O)C4)c3C(F)(F)F)c2-c2ncccn2)c1Cl [Example 103, 3-{4-[3-(2-chloro-3-methoxyphenyl)-4-(pyrimidin-2-yl)-1,2-oxazol-5-yl]-5-(trifluoromethyl)-1H-pyrazol-1-yl}-1-methylcyclobutan-1-ol]
INF-γ
  IC50: < 50 nM
[1]; [3]
  half-life at 1 μM: > 100 min
IL-17F
  IC50: < 50 nM
IL-17A
  IC50: < 50 nM

## CC(C)(O)Cn1ncc(-c2onc(-c3c(F)cccc3Cl)c2-c2ncccn2)c1C(F)(F)F [Example 118, 1-{4-[3-(2-chloro-6-fluorophenyl)-4-(pyrimidin-2-yl)-1,2-oxazol-5-yl]-5-(trifluoromethyl)-1H-pyrazol-1-yl}-2-methylpropan-2-ol]
INF-γ
  IC50: < 50 nM
[1]; [3]
  half-life at 1 μM: > 100 min
IL-17F
  IC50: < 50 nM
IL-17A
  IC50: < 50 nM

## COc1cccc(-c2noc(-c3cnn(CCC(C)(C)O)c3C(F)(F)F)c2-c2ncccn2)c1Cl [Example 121, 4-{4-[3-(2-chloro-3-methoxyphenyl)-4-(pyrimidin-2-yl)-1,2-oxazol-5-yl]-5-(trifluoromethyl)-1H-pyrazol-1-yl}-2-methylbutan-2-ol]
INF-γ
  IC50: < 50 nM
[1]; [3]
  half-life at 1 μM: > 100 min
IL-17F
  IC50: 50 to 500 nM
IL-17A
  IC50: < 50 nM

## COc1cccc(-c2noc(-c3cnn(CCC(C)(C)O)c3C)c2-c2ncccn2)c1Cl [Example 124, 4-{4-[3-(2-chloro-3-methoxyphenyl)-4-(pyrimidin-2-yl)-1,2-oxazol-5-yl]-5-methyl-1H-pyrazol-1-yl}-2-methylbutan-2-ol]
INF-γ
  IC50: < 50 nM
[1]; [3]
  half-life at 1 μM: > 100 min
IL-17F
  IC50: < 50 nM
IL-17A
  IC50: < 50 nM

## COc1ccc(Cl)c(-c2noc(-c3cnn(CCC(C)(C)O)c3C)c2-c2ncccn2)c1Cl [Example 125, 4-{4-[3-(2,6-dichloro-3-methoxyphenyl)-4-(pyrimidin-2-yl)-1,2-oxazol-5-yl]-5-methyl-1H-pyrazol-1-yl}-2-methylbutan-2-ol]
INF-γ
  IC50: < 50 nM
[1]; [3]
  half-life at 1 μM: > 100 min
IL-17F
  IC50: < 50 nM
IL-17A
  IC50: 50 to 500 nM

## Cc1c(-c2onc(-c3c(F)cccc3Cl)c2-c2ncccn2)cnn1CCC(C)(C)O [Example 127, 4-{4-[3-(2-chloro-6-fluorophenyl)-4-(pyrimidin-2-yl)-1,2-oxazol-5-yl]-5-methyl-1H-pyrazol-1-yl}-2-methylbutan-2-ol]
INF-γ
  IC50: < 50 nM
[1]; [3]
  half-life at 1 μM: > 100 min
IL-17F
  IC50: 50 to 500 nM
IL-17A
  IC50: 50 to 500 nM

## CC(C)(O)CCn1ncc(-c2onc(-c3cccc(OCCN4CCOCC4)c3Cl)c2-c2ncccn2)c1C(F)(F)F [Example 133, 4-[4-(3-{2-chloro-3-[2-(morpholin-4-yl)ethoxy]phenyl}-4-(pyrimidin-2-yl)-1,2-oxazol-5-yl)-5-(trifluoromethyl)-1H-pyrazol-1-yl]-2-methylbutan-2-ol]
INF-γ
  IC50: < 50 nM
[1]; [3]
  half-life at 1 μM: 2 to 9.99 min
IL-17F
  IC50: < 50 nM
IL-17A
  IC50: < 50 nM

## CN(C)CCOc1cccc(-c2noc(-c3cnn(CCC(C)(C)O)c3C(F)(F)F)c2-c2ncccn2)c1Cl [Example 134, 4-[4-(3-{2-chloro-3-[2-(dimethylamino)ethoxy]phenyl}-4-(pyrimidin-2-yl)-1,2-oxazol-5-yl)-5-(trifluoromethyl)-1H-pyrazol-1-yl]-2-methylbutan-2-ol]
INF-γ
  IC50: 50 to 500 nM
[1]; [3]
  half-life at 1 μM: > 100 min
IL-17F
  IC50: 50 to 500 nM
IL-17A
  IC50: < 50 nM

## CC(C)(O)CCn1ncc(-c2onc(-c3cccc(OCCN4CCCC4)c3Cl)c2-c2ncccn2)c1C(F)(F)F [Example 135, 4-[4-(3-{2-chloro-3-[2-(pyrrolidin-1-yl)ethoxy]phenyl}-4-(pyrimidin-2-yl)-1,2-oxazol-5-yl)-5-(trifluoromethyl)-1H-pyrazol-1-yl]-2-methylbutan-2-ol]
INF-γ
  IC50: < 50 nM
[1]; [3]
  half-life at 1 μM: 40 to 100 min
IL-17F
  IC50: 50 to 500 nM
IL-17A
  IC50: 50 to 500 nM

## CCN(CC)CCOc1cccc(-c2noc(-c3cnn(CCC(C)(C)O)c3C(F)(F)F)c2-c2ncccn2)c1Cl [Example 137, 4-[4-(3-{2-chloro-3-[2-(diethylamino)ethoxy]phenyl}-4-(pyrimidin-2-yl)-1,2-oxazol-5-yl)-5-(trifluoromethyl)-1H-pyrazol-1-yl]-2-methylbutan-2-ol]
INF-γ
  IC50: 50 to 500 nM
[1]; [3]
  half-life at 1 μM: 10 to 40 min
IL-17F
  IC50: 50 to 500 nM
IL-17A
  IC50: 50 to 500 nM

## CC(C)(O)CCn1ncc(-c2onc(-c3cccc(OCCN4CCS(=O)(=O)CC4)c3Cl)c2-c2ncccn2)c1C(F)(F)F [Example 138, 4-[2-(2-chloro-3-{5-[1-(3-hydroxy-3-methylbutyl)-5-(trifluoromethyl)-1H-pyrazol-4-yl]-4-(pyrimidin-2-yl)-1,2-oxazol-3-yl}phenoxy)ethyl]-thiomorpholine-1,1-dione]
INF-γ
  IC50: 50 to 500 nM
[1]; [3]
  half-life at 1 μM: 2 to 9.99 min
IL-17F
  IC50: < 50 nM
IL-17A
  IC50: < 50 nM

## CC(C)(O)CCn1ncc(-c2onc(-c3cccc(OCCN4CC5(COC5)C4)c3Cl)c2-c2ncccn2)c1C(F)(F)F [Example 139, 4-(4-{3-[2-chloro-3-(2-{2-oxa-6-azaspiro[3.3]heptan-6-yl}ethoxy)phenyl]-4-(pyrimidin-2-yl)-1,2-oxazol-5-yl}-5-(trifluoromethyl)-1H-pyrazol-1-yl)-2-methylbutan-2-ol]
INF-γ
  IC50: 50 to 500 nM
[1]; [3]
  half-life at 1 μM: 10 to 40 min
IL-17F
  IC50: < 50 nM
IL-17A
  IC50: < 50 nM

## CC(C)(O)CCn1ncc(-c2onc(-c3cccc(OCCCN4CCS(=O)(=O)CC4)c3Cl)c2-c2ncccn2)c1C(F)(F)F [Example 141, 4-[3-(2-chloro-3-{5-[1-(3-hydroxy-3-methylbutyl)-5-(trifluoromethyl)-1H-pyrazol-4-yl]-4-(pyrimidin-2-yl)-1,2-oxazol-3-yl}phenoxy)propyl]-thiomorpholine-1,1-dione]
INF-γ
  IC50: < 50 nM
[1]; [3]
  half-life at 1 μM: 2 to 9.99 min
IL-17F
  IC50: < 50 nM
IL-17A
  IC50: < 50 nM
